Measured values published in ChEMBL document CHEMBL2021779, “Inhibition of hepatitis C virus NS5A by fluoro-olefin based γ-turn mimetics” (Bioorg Med Chem Lett, 2012).

Columns and labels:
Hepatitis C virus [1] = experiment: Antiviral activity against Hepatitis C virus genotype 1B by whole cell replicon assay; type: functional, organism-based, Hepacivirus hominis
Hepatitis C virus [2] = experiment: Antiviral activity against Hepatitis C virus genotype 2A by whole cell replicon assay; type: functional, organism-based, Hepacivirus hominis
[3] = test system: Hepatitis C virus subtype 1a; experiment: Antiviral activity against Hepatitis C virus genotype 1A by whole cell replicon assay

Structure (SMILES)	EC50 (Hepatitis C virus [1])	EC50 (Hepatitis C virus [2])	EC50 [3]
COC(=O)N[C@H](C(=O)N1CCC[C@H]1c1ncc(-c2ccc(-c3ccc(-c4cnc([C@@H]5CCCN5C(=O)[C@@H](NC(=O)OC)C(C)C)[nH]4)cc3)cc2)[nH]1)C(C)C	[…]	0.063 nM	–
COC(=O)N[C@H](/C(F)=C1\CCC[C@H]1c1ncc(-c2ccc(-c3ccc(-c4cnc([C@@H]5CCC/C5=C(/F)[C@@H](NC(=O)OC)C(C)C)[nH]4)cc3)cc2)[nH]1)C(C)C	0.079 nM	167 nM	189 nM
COC(=O)N[C@H](/C(F)=C(\C)[C@@H](C)c1ncc(-c2ccc(-c3ccc(-c4cnc([C@H](C)/C(C)=C(\F)[C@@H](NC(=O)OC)C(C)C)[nH]4)cc3)cc2)[nH]1)C(C)C	27.3 nM	397 nM	659 nM
